Marks after values point to notes of the source that are not given here.
Legend:
[1] = Identification of the primary metabolites in pooled 24 h urine (LC-MS-MS full scan); assay type: in vivo; settings: rat, single oral dose 3 mg/kg in 1% CMC, qualitative
Protocol: Urine was collected from rats exposed to a single oral dose (3 mg/kg in 1% CMC) of each compound over a 24 hour period in metabolic cages. The pooled urine sample was then subjected to full scan mass spectral analysis, using the same LC-MS conditions as described in example 1 above. Further MS-MS analysis of the product ions was then performed, and likely fragmentations/re-arrangements assigned from the publicly available Metabolite ID database.
For the major metabolites, the assigned structures were confirmed by synthesis of authentic samples, using methods well known in the art, which were subject to LC-MS-MS analysis under the same conditions as the urine samples.
Note that metabolite ID studies provide only qualitative estimates of the relative amounts of the different metabolites present, and separately validated assays with appropriate internal standards would be required to quantitate each metabolite species.
The detected metabolites, in rank order of concentration detected are shown in FIG. 2 for the five compounds analysed. It is important to note that the methodology used here is not necessarily exhaustive, and further (particularly minor) metabolites may also be present which were below the detection limits for the methods applied here. As a general rule, it can be assumed that metabolites representing 10% or more of the injected dose will be detected (though not necessarily structurally identified) by the methods used here).

[2] = system: S. Typhinurium (TA 102, TA98 and TA 100); experiment: AMES test, revertant colony formation; assay type: cell-based; settings: for Revertant colony formation TA98 + S9: TA98 with S9, top dose 5 mg/ml; for Revertant colony formation TA98: TA98 without S9, top dose 5 mg/ml; for Revertant colony formation TA100 + S9: TA100 with S9 rat liver microsomal system, top dose 5 mg/ml; for Revertant colony formation TA100: TA100 without S9, top dose 5 mg/ml; for Revertant colony formation TA102 + S9: TA102 with S9, top dose 5 mg/ml; for Revertant colony formation TA102: TA102 without S9, top dose 5 mg/ml
Protocol: The five compounds were subjected to a standard AMES test to assess likely genotoxicity. Three His-auxotroph strains of S. Typhinurium (TA 102, TA98 and TA 100) were treated with each of the compounds at 5 concentrations (up to 5 mg/ml) in the presence and absence of S9 rat liver microsomal metabolising system. The number of revertant colonies was then determined by plating on trace-His minimal media.

[3] = system: target receptor (site of specific interaction of BN83250) (Homo sapiens); experiment: Competition for specific binding of [3H]-BN83250 to human myelomonocytic cell line; settings: competition binding curve, non-linear modelling
Protocol: The general pharmacology of the five compounds was assessed, both against the specific target receptor, and against a wide variety of other receptors, many related in structure to the target receptor. Specific binding to the target receptor was assessed by competition for the binding of [^3H]-BN83250 (BN83250 is (S)-3-(2′,2′-dimethyldodecanoylamino)-caprolactam; Fox et al. J Med Chem. […]; 48(3):867-74; an agent known to bind to the same target receptor as the lactam BSCIs disclosed here). Binding to non-target receptors was assessed by competition for the binding of various specific radioligands for other receptors which are well known in the art.
For specific binding the human myelomonocytic cell line was resuspended in binding buffer (20 mM HEPES, 150 mM NaCl, pH 7.4; 10^6 cells per reaction) at 4° C. in the presence of 10 nM [^3]-BN83250 (from 1 μM stock in 100% ethanol; 30 Ci/mmol) and various competitors (1% DMSO maximum vehicle concentration). Reactions were incubated for 2 hours on ice, then filtered through GF/C filters pre-soaked in 0.5% polyethyeneimine. Unbound material was washed away with 5×5 ml ice cold washing buffer (20 mM HEPES, 150 mM NaCl, pH 7.4) under a slow vacuum.
Competition for the specific [^3H]-BN83250 with compounds (I′), (II) and (V) was then determined at various concentrations from 1 μM to 10 μM. Compounds (III) and (IV) were not examined in these experiments.
Non-linear modelling was then applied to the competition binding curves for the various compounds, in order to compare their properties as agents binding to the target receptor (defined as the site of specific interaction of BN83250).

Chain of target receptor (site of specific interaction of BN83250) (Homo sapiens) (P30874 whole entry): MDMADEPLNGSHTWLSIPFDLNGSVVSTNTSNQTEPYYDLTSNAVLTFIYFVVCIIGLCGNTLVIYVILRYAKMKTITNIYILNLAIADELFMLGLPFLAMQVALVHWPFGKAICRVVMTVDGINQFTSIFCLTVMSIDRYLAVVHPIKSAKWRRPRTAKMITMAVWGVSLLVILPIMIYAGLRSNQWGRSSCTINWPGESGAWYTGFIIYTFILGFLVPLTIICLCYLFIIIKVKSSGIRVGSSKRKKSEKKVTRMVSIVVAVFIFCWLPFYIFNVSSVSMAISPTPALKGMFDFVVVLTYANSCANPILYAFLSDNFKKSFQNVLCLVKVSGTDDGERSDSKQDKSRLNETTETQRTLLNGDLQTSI

| SMILES | major metabolite / route of metabolism detected in urine [1] | Revertant colony formation TA98 + S9 [2] | Revertant colony formation TA98 [2] | Revertant colony formation TA100 + S9 [2] | Revertant colony formation TA100 [2] | Revertant colony formation TA102 + S9 [2] | Revertant colony formation TA102 [2] | Hill slope [3] |
| --- | --- | --- | --- | --- | --- | --- | --- | --- |
| CC(C)(C)C(=O)N[C@H]1CCCNC1=O [Compound (I′), 3-(2′,2′-dimethylpropanoylamino)-tetrahydropyridin-2-one] | no significant metabolites of (I′) were detected in urine | 1.23 | 2.00** | 0.95 | 0.97 | 0.93 | 0.82 | −1.0 |
| CC(C)(C)S(=O)(=O)N[C@H]1CCCCNC1=O [(IV), 3-(1′,1′-dimethylethylsulfonylamino)-caprolactam] | the major metabolite could not be identified | 0.90 | 0.82 | 0.90 | 0.89 | 0.88 | 0.85 | – |
| O=C1NCCCC[C@@H]1NC(=O)C12CC3CC(CC(O)(C3)C1)C2 [(V), 3-(3′-hydroxyadamantyl-1-carbonylamino)-caprolactam] | the glucuronidated compound was the major metabolite | 0.91 | 0.96 | 0.88 | 0.78 | 1.09 | 0.93 | −0.5 |
| O=C1NCCCC[C@@H]1NC(=O)C12CC3CC(CC(C3)C1)C2 [(II), 3-(adamantane-1-carbonylamino)-caprolactam] | cytochrome P450-mediated hydroxylation | 0.60* | 0.58* | 0.73 | 0.59* | 0.93 | 0.50* | −0.5 |

Source: US7897620B2, “Methods of using anti-inflammatory compounds” (Cambridge Enterprise Limited, priority 2007, dated 2011)
